Assay results: publication PMC8903076 (Journal of medicinal chemistry, 2021)

Molecular target: human GCGR (Homo sapiens, UniProt P47871)
Experiment: CRE-luciferase reporter assay
Assay type: cell-based
Details: HEK293 cells stably expressing human GCGR

human GCGR, sequence (P47871 26-477): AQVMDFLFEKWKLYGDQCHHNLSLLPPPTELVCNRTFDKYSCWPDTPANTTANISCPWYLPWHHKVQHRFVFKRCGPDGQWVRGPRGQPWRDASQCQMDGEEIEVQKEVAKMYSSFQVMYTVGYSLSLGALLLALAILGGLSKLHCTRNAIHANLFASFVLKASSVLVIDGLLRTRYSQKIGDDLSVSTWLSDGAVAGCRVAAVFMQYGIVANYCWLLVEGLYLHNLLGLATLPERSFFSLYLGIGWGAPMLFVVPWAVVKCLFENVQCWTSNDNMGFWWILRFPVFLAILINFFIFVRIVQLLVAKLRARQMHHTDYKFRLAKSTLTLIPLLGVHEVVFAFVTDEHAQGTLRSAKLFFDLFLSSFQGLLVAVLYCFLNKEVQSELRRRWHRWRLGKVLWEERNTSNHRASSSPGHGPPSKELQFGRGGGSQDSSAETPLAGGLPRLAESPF

For “H-HAibQGTFTSDYSKYLDSRRAQDFVK^TailWLX^1T-NH2 [compound 18]”, the “activity in activating GCGR (in words)” value was “completely lost the activity”.
